Assay results from patent US20230293708A1, “CONJUGATE OF SAPONIN AND SINGLE-DOMAIN ANTIBODY, PHARMACEUTICAL COMPOSITION COMPRISING SAID CONJUGATE, THERAPEUTIC USE THEREOF” (SAPREME TECHNOLOGIES B.V., priority 2020, published 2023).
Read-outs that look alike come from different tables or passages of the source.

Legend:
Experiment in all cases: Cell viability (MTS) assay, cell killing
Assay type in all cases: cell-based, human
A431 cells = test system: A431 cells
Description: (§1) After treatment the cells were incubated for 72 hr at 37° C. before the cell viability was determined by a MTS-assay, performed according to the manufacturer's instruction (CellTiter 96® AQueous One Solution Cell Proliferation Assay, Promega). Briefly, the MTS solution was diluted 20× in DMEM without phenol red (PAN-Biotech GmbH) supplemented with 10% FBS. The cells were washed once with 200 μL/PBS well, after which 100 μL diluted MTS solution was added/well. The plate was incubated for approximately 20-30 minutes at 37° C. Subsequently, the OD at 492 nm was measured on a Thermo Scientific Multiskan FC plate reader (Thermo Scientific). For quantification the background signal of ‘medium only’ wells was subtracted from all other wells, before the cell viability percentage of treated/untreated cells was calculated, by dividing the background corrected signal of treated wells over the background corrected signal of the untreated wells (×100).
(§2) Cells were seeded in a 96 well plate at 5.000-10.000 c/w in 100 μL/well and incubated overnight at 37° C. […] The media was removed from the cell culture plate and replaced by 180 μL culture media, followed by the addition of 20 μL treatment-mix/well. […]
(§3) After treatment the cells were incubated for 72 hr at 37° C. before the cell viability was determined by a MTS-assay, performed according to the manufacturer's instruction (CellTiter 96® AQueous One Solution Cell Proliferation Assay, Promega). […] Subsequently, the optical density at 492 nm was measured on a Thermo Scientific Multiskan FC plate reader (Thermo Scientific). For quantification the background signal of ‘medium only’ wells was subtracted from all other wells, before the ratio of […].

SK-BR-3 cells = conditions: read-out: IC50 (calculated on concentration SO1861), + fixed 1.5 pM EGF-dianthin
Description: as §1, §2, §3

CaSki cells = test system: CaSki cells
Description: (§4) Cells were seeded in a 96 well plate at 5.000-10.000 c/w in 100 μL/well and incubated overnight at 37° C. […] The media was removed from the cell culture plate and replaced by 180 μL culture media, followed by the addition of 20 μL treatment-mix/well. […] In the case that endosomal acidification inhibitors (chloroquine (Sigma Aldrich) or bafilomycin A1 (Enzo Life Sciences)) were used, the cell culture media in step 1 of treatment was replaced by 180 μL media containing 1 μM chloroquine or 0.2 μM bafilomycin A1. The plate was incubated for 1 hour at 37° C., before the 10× treatment-mix samples were added. The remaining incubation and treatment steps were performed according to standard procedures known in the field.
(§5) After treatment the cells were incubated for 72 hr at 37° C. before the cell viability was determined by a MTS-assay, performed according to the manufacturer's instruction (CellTiter 96® AQueous One Solution Cell Proliferation Assay, Promega). Briefly, the MTS solution was diluted 20× in DMEM without phenol red (PAN-Biotech GmbH) supplemented with 10% FBS (PAN-Biotech GmbH). The cells were washed once with 200 μL PBS per well, after which 100 μL diluted MTS solution was added per well. The plate was incubated for approximately 20-30 minutes at 37° C. Subsequently, the optical density at 492 nm was measured on a Thermo Scientific Multiskan FC plate reader (Thermo Scientific). For quantification the background signal of ‘medium only’ wells was subtracted from all other wells, before the ratio of […].

HeLa cells = conditions: + 1500 nM SO1861 (unconjugated)
Description: as §4, §5

JIMT-1 cells = conditions: + 1500 nM SO1861 (unconjugated)
Description: as §4, §5

[1] = read-out: IC50 (calculated on concentration SO1861), SO1861 or mAb-SO1861 titrated + fixed 50 pM trastuzumab-saporin

| Molecule | IC50 (A431 cells; read-out: IC50 (calculated on concentration SO1861), + fixed 10 pM cetuximab-saporin) [nM] | IC50 (A431 cells; [1]) [nM] | IC50 (SK-BR-3 cells) [nM] | IC50 (CaSki cells; [1]) [nM] | IC50 (HeLa cells) [nM] | IC50 (CaSki cells; + 1500 nM SO1861 (unconjugated), read-out: IC50) [nM] | IC50 (JIMT-1 cells) [nM] |
| --- | --- | --- | --- | --- | --- | --- | --- |
| CC(=O)O[C@H]1[C@H](O[C@@H]2OC[C@@H](O)[C@H](O)[C@H]2O)[C@@H](O)[C@H](O[C@@H]2[C@H](O)[C@@H](O[C@@H]3O[C@@H](C)[C@H](O[C@@H]4OC[C@@H](O)[C@H](O[C@@H]5OC[C@@H](O)[C@H](O)[C@H]5O)[C@H]4O)[C@@H](O)[C@H]3O)[C@H](OC(=O)[C@]34CCC(C)(C)C[C@H]3C3=CC[C@@H]5[C@@]6(C)CC[C@H](O[C@H]7O[C@H](C(=O)O)[C@@H](O)[C@H](O[C@@H]8OC[C@@H](O)[C@H](O)[C@H]8O)[C@H]7O[C@@H]7O[C@H](CO)[C@H](O)[C@H](O)[C@H]7O)[C@@](C)(C=O)[C@@H]6CC[C@@]5(C)[C@]3(C)C[C@H]4O)O[C@@H]2C)O[C@@H]1C [SO1861] | 600 | ≥ 1000 | 800 | ≥ 1000 | – | – | – |
| Saporin | – | – | – | – | 0.03 | 0.015 | 0.03 |
